Experimental data: PMC8920929 (The Journal of Biological Chemistry, 2022)

Target: T1, TRPV3-L508A (Homo sapiens, UniProt Q8NET8, L508A)
T1 sequence (Q8NET8 1-790 L508A): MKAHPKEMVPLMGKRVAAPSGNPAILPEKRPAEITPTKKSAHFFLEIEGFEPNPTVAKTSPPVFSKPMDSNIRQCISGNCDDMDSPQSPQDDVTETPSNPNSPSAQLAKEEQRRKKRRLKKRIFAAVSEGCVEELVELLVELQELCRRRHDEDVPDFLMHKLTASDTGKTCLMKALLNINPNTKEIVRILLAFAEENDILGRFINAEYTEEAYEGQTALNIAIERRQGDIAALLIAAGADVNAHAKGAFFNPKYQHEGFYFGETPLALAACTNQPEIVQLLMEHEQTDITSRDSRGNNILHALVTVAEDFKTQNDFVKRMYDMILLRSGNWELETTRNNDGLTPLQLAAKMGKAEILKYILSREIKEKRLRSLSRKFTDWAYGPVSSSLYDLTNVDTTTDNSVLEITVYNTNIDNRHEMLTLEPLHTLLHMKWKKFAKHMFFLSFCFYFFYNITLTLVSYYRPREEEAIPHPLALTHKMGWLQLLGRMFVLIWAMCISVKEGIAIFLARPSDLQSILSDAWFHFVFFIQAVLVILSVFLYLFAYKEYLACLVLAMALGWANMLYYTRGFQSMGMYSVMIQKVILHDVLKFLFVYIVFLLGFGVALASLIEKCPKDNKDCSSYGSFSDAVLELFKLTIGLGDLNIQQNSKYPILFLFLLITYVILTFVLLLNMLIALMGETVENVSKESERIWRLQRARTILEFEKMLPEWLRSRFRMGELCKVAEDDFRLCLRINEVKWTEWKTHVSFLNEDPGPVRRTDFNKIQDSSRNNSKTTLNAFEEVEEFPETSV
Assay: Whole-cell and single-channel recordings of the TRPV3-L508A mutant
Type: cell-based
Conditions: carvacrol 0.3-3.0 mM or 50 μM 2-APB

- activation of TRPV3 L508A mutant channel: loss of the mutant channel activation
SMILES: Cc1ccc(C(C)C)cc1O [carvacrol, 5-Isopropyl-2-methylphenol]
